Results reported in patent US9340554B2, “IRAK inhibitors and uses thereof” (Nimbus Iris, Inc., priority 2011, dated 2016).
Read-outs that look alike come from different tables or passages of the source.

Legend:
[1] = tested on: LPS induced IL8 production in THP-1 cells; assay: LPS induced THP-1 cell cytokine production assay, IL8 (HTRF); format: cell-based; details: Homo sapiens
Protocol: (§1) Provided compounds were also assayed in an LPS (Lipopolysacharide) induced THP-1 cell cytokine (TNFα and IL8) production assay. The protocol for this assay was as follows below. THP-1 cells from ATCC (TIB-202) were cultured in RPMI Medium 1640 (Invitrogen, Cat No. […] LPS-EK ultra pure (Invivogen, Cat No. tlrl-peklps) was used to induce IL8 and TNFα production, that was detected in the cell culture supernatant by IL8 HTRF kit (Cisbio, Cat No. 62IL8PEB) and TNFα HTRF kit (Cisbio, Cat No. 62[…]), as per manufacturer instructions. Cells were cultured in 96 well assay plates at 100,000 cells per well, and compounds diluted in final 0.3% DMSO were pre-incubated with cells for 1 hour prior to stimulation with 300 ng/mL LPS. […] The compound numbers correspond to the compound numbers in Table 1.

[2] = tested on: LPS induced TNFα production in THP-1 cells; assay: LPS induced THP-1 cell cytokine production assay, TNFα (HTRF); format: cell-based; details: Homo sapiens
Protocol: as §1

IRAK4 = target: T1, IRAK4 (Homo sapiens, UniProt Q9NWZ3); assay: IRAK-4 activity inhibition assay (Caliper, Peptide 8, 37 μM ATP); format: biochemical; details: 3.5 nM IRAK4, 1.5 μM Peptide 8, 37 μM ATP, 28° C. 40 minutes; read-out: IRAK-4 activity inhibition IC50
T1 construct: purchased CARNA Bioscience 09-145
T1 sequence (Q9NWZ3 1-460): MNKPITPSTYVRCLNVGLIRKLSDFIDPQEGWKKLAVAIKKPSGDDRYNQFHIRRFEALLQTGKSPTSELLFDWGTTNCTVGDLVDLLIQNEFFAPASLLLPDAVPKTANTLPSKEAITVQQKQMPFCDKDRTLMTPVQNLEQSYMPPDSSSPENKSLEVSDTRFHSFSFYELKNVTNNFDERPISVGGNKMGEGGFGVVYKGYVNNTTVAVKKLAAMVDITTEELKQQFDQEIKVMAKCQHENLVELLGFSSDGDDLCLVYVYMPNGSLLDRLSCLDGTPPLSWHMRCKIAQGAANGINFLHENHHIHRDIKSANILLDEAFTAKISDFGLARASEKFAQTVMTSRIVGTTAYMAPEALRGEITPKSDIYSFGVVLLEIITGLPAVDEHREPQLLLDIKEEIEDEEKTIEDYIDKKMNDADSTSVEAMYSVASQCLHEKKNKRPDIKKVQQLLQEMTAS

[3] = THP-1 cells, 300 ng/mL LPS, 1 hour pre-incubation, supernatant at 5 hours / 16 hours, read-out: IL8 production IC50
[4] = THP-1 cells, 300 ng/mL LPS, 1 hour pre-incubation, supernatant at 5 hours, read-out: TNFα production IC50

| IC50 (IRAK4) | IC50 [1, 3] | IC50 [2, 4] | SMILES | further results |
| --- | --- | --- | --- | --- |
| – | – | – | CN(C)[C@H]1CC[C@H](Nc2ncnc3sc4c(c23)CCC4)CC1 [Compound I-12, trans-N^1-(6,7-dihydro-5H-cyclopenta[4,5]thieno[2,3-d]pyrimidin-4-yl)-N^4,N^4-dimethylcyclohexane-1,4-diamine] | IC50 ([1]; THP-1, read-out: IL8 production IC50): 0.5 to 1 µM; IC50 ([2]; THP-1, read-out: TNFα production IC50): 0.5 to 1 µM |
| < 5 µM | 0.5 to 1 µM | 1 to 5 µM | CN(CC(=O)N1CCCC1)[C@H]1CC[C@H](Nc2ncnc3sc4c(c23)CCC4)CC1 [Compound I-124, 2-[methyl[4-([7-thia-9,11-diazatricyclo[6.4.0.0[2,6]]dodeca-1(12),2(6),8,10-tetraen-12-yl]amino)cyclohexyl]amino]-1-(pyrrolidin-1-yl)ethan-1-one] | – |
| – | 1 to 5 µM | 1 to 5 µM | CN(C)[C@H]1CC[C@H](Nc2nc(Nc3ccccc3)nc3sc4c(c23)CCC4)CC1 [Compound I-201, 12-N-[4-(dimethylamino)cyclohexyl]-10-N-phenyl-7-thia-9,11-diazatricyclo[6.4.0.0[2,6]]dodeca-1(8),2(6),9,11-tetraene-10,12-diamine] | – |
| < 5 µM | – | – | CN(CC(=O)N1CCCCC1)[C@H]1CC[C@H](Nc2ncnc3sc4c(c23)CCC4)CC1 [Compound I-129, 2-[methyl[4-([7-thia-9,11-diazatricyclo[6.4.0.0[2,6]]dodeca-1(12),2(6),8,10-tetraen-12-yl]amino)cyclohexyl]amino]-1-(piperidin-1-yl)ethan-1-one] | – |
| 20 to 50 µM | – | – | NC1CCN(c2ncnc3sc4c(c23)CCC4)CC1 [Compound I-9] | – |
| 5 to 20 µM | – | – | Cc1sc2ncnc(N3CCC(C(=O)NCc4ccc(S(N)(=O)=O)cc4)CC3)c2c1C [Compound I-25] | – |
| < 5 µM | 1 to 5 µM | 1 to 5 µM | CN(CC(=O)N1CCCC1)[C@H]1CC[C@H](Oc2ncnc3sc4c(c23)CCC4)CC1 [Compound I-133] | – |
| < 5 µM | – | – | c1nc(N[C@H]2CC[C@H](N3CCCCC3)CC2)c2c3c(sc2n1)CCC3 [Compound I-143, N-((1r,4r)-4-(piperidin-1-yl)cyclohexyl)-6,7-dihydro-5H-cyclopenta[4,5]thieno[2,3-d]pyrimidin-4-amine] | – |
| 20 to 50 µM | – | – | O=C(NCC(F)(F)F)C1CCN(c2ncnc3sc4c(c23)CCC4)CC1 [Compound I-33] | – |
